Patent US20250207131A1, “MODIFIED RNA AGENTS WITH REDUCED OFF-TARGET EFFECT” (Alnylam Pharmaceuticals, Inc., priority 2018, published 2025)

Key:
TTR [1] = test: Mouse pharmacodynamic study, circulating TTR protein; assay type: in vivo; set-up: key: fraction of vehicle-control group mean serum TTR protein; conditions: mice, single dose 1 mg/kg, circulation, Day 7
Protocol: In mouse pharmacodynamic studies, female C57BL/6 mice (Charles River Laboratories) were administered a single dose of a vehicle control (1×PBS or 0.9% sodium chloride) or siRNA subcutaneously in the upper back. Bleeds were collected by retro-orbital bleeding. Serum were separated by centrifuging at 13000 rpm at room temperature for 10 mins. Mouse livers were collected and immediately snap frozen in liquid nitrogen, and stored at −80° C. for mRNA and siRNA analysis.
Mouse TTR Serum Protein Methods:_TTR serum protein was quantified using a commercially available enzyme-linked immunosorbent assay, 41-ALBMS-E01 (ALPCO, Salem, NH), according to manufacturer's instructions. Briefly, serum samples were diluted 4000 fold in 1× ALPCO Kit Dilution Buffer. An 8-point mouse TTR standard curve was generated using 2.5× serial dilutions, ranging from 0 to 1000 ng/mL. Standards and samples (100 uL) were added to the plate and allowed to incubate for 30 minutes at room temperature. […] After a wash in ALPCO Kit 1× Wash Buffer, plates were incubated for 10 minutes at room temperature in the dark with 3,3′,5,5′-tetramethybenzidine (TMB) and hydrogen peroxide in citric acid buffer at pH 3.3. Reactions were quenched with 100 μL of […] sulfuric acid per well. Absorbance at […] was read on a SpectraMax plate reader, and data were fit to a 4-parameter curve (y=(A−D)/(1+(x/C)^B)+D) as calculated in Softmax Pro Software to determine serum TTR protein levels expressed in ug/mL. Protein levels at each time point were normalized to the respective group average of vehicle control serum protein values.

TTR [2] = test: In vitro on-target activity, primary mouse hepatocytes, free uptake (TTR siRNAs); assay type: cell-based; conditions: 1 nM, log2 transformed, relative to the parent
[3] = antisense Position 7, Seq 3 (TTR)
[4] = antisense Position 7, Seq 4 (TTR)
[5] = antisense Position 5, Seq 3 (TTR)

Row | On-target FU (TTR [2]; [5]) | On-target FU (TTR [2]; [3]) | On-target FU (TTR [2]; [4]) | Substance | On-target, level of protein remaining with respect to PBS control (TTR [1]; [3]) | On-target, level of protein remaining with respect to PBS control (TTR [1]; [4])
1 | −0.10 | −0.02 | −0.14 | 2′-(S)-Me-UNA [Mod 7 (S)] | 0.15 | 0.20
2 | −0.78 | −0.32 | 0.36 | 3′-(R)-Me-UNA [Mod 6 (R)] | 0.20 | 0.29
3 | −0.38 | −0.53 | −0.09 | 3′-(S)-Me-UNA [Mod 6 (S)] | 0.20 | 0.23

More lines, now with the values behind:

Row | Substance | On-target FU (TTR [2]; [5]) | On-target FU (TTR [2]; [3]) | On-target FU (TTR [2]; [4]) | On-target, level of protein remaining with respect to PBS control (TTR [1]; [3]) | On-target, level of protein remaining with respect to PBS control (TTR [1]; [4])
4 | 2′-(R)-Me-UNA [Mod 7 (R)] | 0.02 | −0.35 | −0.24 | 0.18 | 0.14
5 | 5′-(R)-Me-UNA [Mod 5 (R)] | −0.16 | −0.03 | −0.33 | 0.17 | 0.16
6 | 5′-(S)-Me-UNA [Mod 5 (S)] | −0.87 | −1.20 | 0.22 | 0.17 | 0.16
